Laboratory results reported in the NIST ThermoML archive (doi:10.1021/je4010678).

Test: xn = mol fraction of the nth substance listed
Settings: 101 kPa, Liquid, Scientific instruments device model 9700

[I-].[K+] [potassium iodide] + C[S+](C)[O-]
Settings	electrical conductivity [S/m]
293.15 K, x1 = 0.0001281	0.00573
293.15 K, x1 = 0.0001586	0.00687
293.15 K, x1 = 0.0003312	0.0147
293.15 K, x1 = 0.0006135	0.0267
293.15 K, x1 = 0.001095	0.0457
293.15 K, x1 = 0.002002	0.0778
293.15 K, x1 = 0.005707	0.183
293.15 K, x1 = 0.01	0.348
293.15 K, x1 = 0.0197	0.605
293.15 K, x1 = 0.04	0.8279
293.15 K, x1 = 0.0499	0.9283
293.15 K, x1 = 0.0707	0.9369
295.15 K, x1 = 0.0001281	0.00602
295.15 K, x1 = 0.0001586	0.00718
295.15 K, x1 = 0.0003312	0.0153
295.15 K, x1 = 0.0006135	0.0279
295.15 K, x1 = 0.001095	0.0475
295.15 K, x1 = 0.002002	0.0809
295.15 K, x1 = 0.005707	0.19
295.15 K, x1 = 0.01	0.362
295.15 K, x1 = 0.0197	0.632
295.15 K, x1 = 0.04	0.8651
295.15 K, x1 = 0.0499	0.9694
295.15 K, x1 = 0.0707	0.9785
297.15 K, x1 = 0.0001281	0.0063
297.15 K, x1 = 0.0001586	0.00749
297.15 K, x1 = 0.0003312	0.0159
297.15 K, x1 = 0.0006135	0.0291
297.15 K, x1 = 0.001095	0.0493
297.15 K, x1 = 0.002002	0.0841
297.15 K, x1 = 0.005707	0.198
297.15 K, x1 = 0.01	0.377
297.15 K, x1 = 0.0197	0.659
297.15 K, x1 = 0.04	0.9006
297.15 K, x1 = 0.0499	1.013
297.15 K, x1 = 0.0707	1.023
299.15 K, x1 = 0.0001281	0.00656
299.15 K, x1 = 0.0001586	0.00782
299.15 K, x1 = 0.0003312	0.0165
299.15 K, x1 = 0.0006135	0.0303
299.15 K, x1 = 0.001095	0.0511
299.15 K, x1 = 0.002002	0.0872
299.15 K, x1 = 0.005707	0.205
299.15 K, x1 = 0.01	0.392
299.15 K, x1 = 0.0197	0.686
299.15 K, x1 = 0.04	0.9366
299.15 K, x1 = 0.0499	1.051
299.15 K, x1 = 0.0707	1.067
301.15 K, x1 = 0.0001281	0.00683
301.15 K, x1 = 0.0001586	0.00814
301.15 K, x1 = 0.0003312	0.0171
301.15 K, x1 = 0.0006135	0.0315
301.15 K, x1 = 0.001095	0.0529
301.15 K, x1 = 0.002002	0.0904
301.15 K, x1 = 0.005707	0.213
301.15 K, x1 = 0.01	0.406
301.15 K, x1 = 0.0197	0.713
301.15 K, x1 = 0.04	0.9737
301.15 K, x1 = 0.0499	1.09
301.15 K, x1 = 0.0707	1.112
303.15 K, x1 = 0.0001281	0.00711
303.15 K, x1 = 0.0001586	0.00847
303.15 K, x1 = 0.0003312	0.0177
303.15 K, x1 = 0.0006135	0.0328
303.15 K, x1 = 0.001095	0.0547
303.15 K, x1 = 0.002002	0.0936
303.15 K, x1 = 0.005707	0.22
303.15 K, x1 = 0.01	0.421
303.15 K, x1 = 0.0197	0.741
303.15 K, x1 = 0.04	1.011
303.15 K, x1 = 0.0499	1.132
303.15 K, x1 = 0.0707	1.152
305.15 K, x1 = 0.0001281	0.00737
305.15 K, x1 = 0.0001586	0.0088
305.15 K, x1 = 0.0003312	0.0184
305.15 K, x1 = 0.0006135	0.034
305.15 K, x1 = 0.001095	0.0566
305.15 K, x1 = 0.002002	0.0969
305.15 K, x1 = 0.005707	0.228
305.15 K, x1 = 0.01	0.436
305.15 K, x1 = 0.0197	0.768
305.15 K, x1 = 0.04	1.047
305.15 K, x1 = 0.0499	1.169
305.15 K, x1 = 0.0707	1.199
307.15 K, x1 = 0.0001281	0.00763
307.15 K, x1 = 0.0001586	0.0092
307.15 K, x1 = 0.0003312	0.0191
307.15 K, x1 = 0.0006135	0.0352
307.15 K, x1 = 0.001095	0.0584
307.15 K, x1 = 0.002002	0.1
307.15 K, x1 = 0.005707	0.235
307.15 K, x1 = 0.01	0.451
307.15 K, x1 = 0.0197	0.794
307.15 K, x1 = 0.04	1.083
307.15 K, x1 = 0.0499	1.208
307.15 K, x1 = 0.0707	1.244
309.15 K, x1 = 0.0001281	0.0079
309.15 K, x1 = 0.0001586	0.00954
309.15 K, x1 = 0.0003312	0.0198
309.15 K, x1 = 0.0006135	0.0364
309.15 K, x1 = 0.001095	0.0603
309.15 K, x1 = 0.002002	0.103
309.15 K, x1 = 0.005707	0.243
309.15 K, x1 = 0.01	0.465
309.15 K, x1 = 0.0197	0.823
309.15 K, x1 = 0.04	1.124
309.15 K, x1 = 0.0499	1.246
309.15 K, x1 = 0.0707	1.286
311.15 K, x1 = 0.0001281	0.00818
311.15 K, x1 = 0.0001586	0.00991
311.15 K, x1 = 0.0003312	0.0205
311.15 K, x1 = 0.0006135	0.0376
311.15 K, x1 = 0.001095	0.0621
311.15 K, x1 = 0.002002	0.106
311.15 K, x1 = 0.005707	0.251
311.15 K, x1 = 0.01	0.48
311.15 K, x1 = 0.0197	0.849
311.15 K, x1 = 0.04	1.161
311.15 K, x1 = 0.0499	1.282
311.15 K, x1 = 0.0707	1.342
313.15 K, x1 = 0.0001281	0.00848
313.15 K, x1 = 0.0001586	0.0103
313.15 K, x1 = 0.0003312	0.0212
313.15 K, x1 = 0.0006135	0.0389
313.15 K, x1 = 0.001095	0.064
313.15 K, x1 = 0.002002	0.11
313.15 K, x1 = 0.005707	0.258
313.15 K, x1 = 0.01	0.494
313.15 K, x1 = 0.0197	0.874
313.15 K, x1 = 0.04	1.195
313.15 K, x1 = 0.0499	1.319
313.15 K, x1 = 0.0707	1.374
315.15 K, x1 = 0.0001281	0.00879
315.15 K, x1 = 0.0001586	0.0107
315.15 K, x1 = 0.0003312	0.022
315.15 K, x1 = 0.0006135	0.0401
315.15 K, x1 = 0.001095	0.0658
315.15 K, x1 = 0.002002	0.113
315.15 K, x1 = 0.005707	0.266
315.15 K, x1 = 0.01	0.508
315.15 K, x1 = 0.0197	0.9
315.15 K, x1 = 0.04	1.233
315.15 K, x1 = 0.0499	1.366
315.15 K, x1 = 0.0707	1.408
317.15 K, x1 = 0.0001281	0.00918
317.15 K, x1 = 0.0001586	0.011
317.15 K, x1 = 0.0003312	0.0227
317.15 K, x1 = 0.0006135	0.0413
317.15 K, x1 = 0.001095	0.0676
317.15 K, x1 = 0.002002	0.116
317.15 K, x1 = 0.005707	0.274
317.15 K, x1 = 0.01	0.522
317.15 K, x1 = 0.0197	0.922
317.15 K, x1 = 0.04	1.271
317.15 K, x1 = 0.0499	1.39
317.15 K, x1 = 0.0707	1.469
319.15 K, x1 = 0.0001281	0.00954
319.15 K, x1 = 0.0001586	0.0114
319.15 K, x1 = 0.0003312	0.0236
319.15 K, x1 = 0.0006135	0.0424
319.15 K, x1 = 0.001095	0.0694
319.15 K, x1 = 0.002002	0.119
319.15 K, x1 = 0.005707	0.281
319.15 K, x1 = 0.01	0.536
319.15 K, x1 = 0.0197	0.945
319.15 K, x1 = 0.04	1.309
319.15 K, x1 = 0.0499	1.434
319.15 K, x1 = 0.0707	1.527
321.15 K, x1 = 0.0001281	0.01
321.15 K, x1 = 0.0001586	0.0118
321.15 K, x1 = 0.0003312	0.0245
321.15 K, x1 = 0.0006135	0.0436
321.15 K, x1 = 0.001095	0.0712
321.15 K, x1 = 0.002002	0.122
321.15 K, x1 = 0.005707	0.289
321.15 K, x1 = 0.01	0.549
321.15 K, x1 = 0.0197	0.968
321.15 K, x1 = 0.04	1.344
321.15 K, x1 = 0.0499	1.466
321.15 K, x1 = 0.0707	1.567
323.15 K, x1 = 0.0001281	0.0104
323.15 K, x1 = 0.0001586	0.0122
323.15 K, x1 = 0.0003312	0.0254
323.15 K, x1 = 0.0006135	0.0447
323.15 K, x1 = 0.001095	0.0729
323.15 K, x1 = 0.002002	0.125
323.15 K, x1 = 0.005707	0.296
323.15 K, x1 = 0.01	0.563
323.15 K, x1 = 0.0197	0.988
323.15 K, x1 = 0.04	1.386
323.15 K, x1 = 0.0499	1.523
323.15 K, x1 = 0.0707	1.607
